The values below come from paper PMC3553074 (PLoS ONE, 2013).

≈ marks a conversion by molar mass, not a printed value. Counter-ions that a name gives are not always drawn. Like-named read-outs stand apart in the source and are kept apart here.

In assay [1] the target is T1, Ft-MglA (Francisella tularensis, UniProt Q5NFG1). The experiment in a line: biochemical. Particulars: read-out: ΔTm (°C) ^1.
Assay [2] has as its system E. coli. The experiment in a line: microbe, parasite or virus in culture. Particulars: Escherichia coli, read-out: E. coli MIC (mM).
Assay [3] concerns the target T2, Ec-SspA (Escherichia coli, UniProt P0ACA3).
T2 construct: His-tagged from pCA24N-sspA (ASKA library clone), expressed in E. coli
T2 sequence (P0ACA3 2-212): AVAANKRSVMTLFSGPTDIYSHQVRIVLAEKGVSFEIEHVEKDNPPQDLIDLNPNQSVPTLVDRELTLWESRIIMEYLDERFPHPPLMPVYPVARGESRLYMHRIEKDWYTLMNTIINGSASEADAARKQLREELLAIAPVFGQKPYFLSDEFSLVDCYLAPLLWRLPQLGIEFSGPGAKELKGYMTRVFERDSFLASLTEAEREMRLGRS
The experiment in a line: biochemical.

In assay [4] the target is T2, Ec-SspA. The assay is described as follows: biochemical. Further details: differential scanning fluorometry with SYPRO Orange, shift of midpoint transition temperature of purified protein.
Assay [5] deals with T1, Ft-MglA. The experiment in a line: biochemical.
Assay [6] addresses F. tularensis SCHU S4 SspA fused to the zinc finger DNA binding domain of murine Zif268 (pACTR-sspA-Zif) (F. tularensis SCHU S4). The experiment in a line: two-hybrid.
The mark [7] stands for this setting: read-out: ΔTm (°C) ^1 / Ft-MglA.
[8] abbreviates: read-out: ΔTm (°C) ^1 / Ec-SspA.

As to `COC(=O)C1=CCCN(C)C1` [Arecoline hydrobromide], in assay [1], the ΔTm at 40 µM was found to be 2.8 ± 0.1 °C. Also, in assay [2], the MIC came to 0.1 mM.

As for `CCc1oc2ccccc2c1C(=O)c1cc(Br)c(O)c(Br)c1` [Benzbromarone], in assay [3] (read-out: ΔTm (°C) ^1), the ΔTm at 40 µM turned out to be 30 ± 1.6 °C. The MIC in assay [2] came out at 1 mM (≈ 424 µg/mL).

As for `C[C@H](CS)C(=O)N1CCC[C@H]1C(=O)O` [Captopril], the MIC in assay [2] is 1 mM (≈ 217 µg/mL). In addition, in assay [4] (read-out: ΔTm (°C) ^1), the ΔTm at 40 µM is 9.2 ± 1.9 °C.

For the molecule `CCN(CC)C(=O)N1CCN(C)CC1` [Diethylcarbamazine citrate], the ΔTm at 40 µM in assay [1] turned out to be 2.1 ± 0.1 °C. The MIC in assay [2] was 1 mM.

With `Cc1c(N(C)CS(=O)(=O)O)c(=O)n(-c2ccccc2)n1C` [Dipyrone], in assay [2], the MIC worked out at 1 mM (≈ 311 µg/mL). Also, the ΔTm at 40 µM in assay [4] (read-out: ΔTm (°C) ^1) was 8.9 ± 1.5 °C.

In the case of `CC1CCc2cc(F)cc3c(=O)c(C(=O)O)cn1c23` (centres unmarked) [Flumequine], the ΔTm at 40 µM in assay [5] (read-out: ΔTm (°C) ^1) was 17.9 ± 2.4 °C. In addition, in assay [2], the MIC stood at 0.1 mM (≈ 26.1 µg/mL).

In the case of `O=C(CCCN1CCC(O)(c2ccc(Cl)cc2)CC1)c1ccc(F)cc1` [Haloperidol], in assay [2], the MIC was determined as 0.1 mM (≈ 37.6 µg/mL).

As to `Cc1ccc(Cl)c(Nc2ccccc2C(=O)O)c1Cl` [Meclofenamic acid], the ΔTm at 40 µM in assay [3] (read-out: ΔTm (°C) ^1) is 22.9 ± 4.1 °C. In addition, the MIC in assay [2] came out at 1 mM (≈ 296 µg/mL).

Consider `COc1ccc2cc(CCC(C)=O)ccc2c1` [Nabumetone], for which the ΔTm at 40 µM in assay [5] (read-out: ΔTm (°C) ^1) turned out to be 13.8 ± 0.1 °C. The MIC in assay [2] came out at 1 mM (≈ 228 µg/mL).

Take `O=C(O)c1cc2ccccc2c(Cc2c(O)c(C(=O)O)cc3ccccc23)c1O` [Pamoic acid]: in assay [2], the MIC turned out to be 0.25 mM (≈ 97.1 µg/mL).

Consider `CCCOc1ccc(C(=O)OCCN(CC)CC)cc1N` [Proparacaine hydrochloride], for which the ΔTm at 40 µM in assay [5] (setting [7]) was 24.5 ± 4.4 °C; in assay [4] (setting [8]), 27.9 ± 4.3 °C. The MIC in assay [2] turned out to be 0.5 mM.

For `CC1=C(/C=C/C(C)=C/C=C/C(C)=C/C(=O)O)C(C)(C)CCC1` [Retinoic acid], the results for the ΔTm at 40 µM in assay [3] (setting [8]) and in assay [5] (setting [7]) were 23.3 ± 3.2 °C and 24.5 ± 3.9 °C, respectively. Also, the MIC in assay [2] was 0.5 mM (≈ 150 µg/mL).

Regarding `Cn1c(=O)c2nc[nH]c2n(C)c1=O` [Theophylline monohydrate], in assay [1], the ΔTm at 40 µM was determined as 2.3 ± 0.1 °C. Also, in assay [2], the MIC came to 0.1 mM.

Regarding `Cc1c(Cl)cccc1Nc1ccccc1C(=O)O` [Tolfenamic acid], the MIC in assay [2] was 1 mM (≈ 262 µg/mL). In addition, the ΔTm at 40 µM in assay [4] (read-out: ΔTm (°C) ^1) worked out at 11.6 ± 2.7 °C.

`C[C@H]1[C@H](C)CC[C@]2(C(=O)O)CC[C@]3(C)C(=CC[C@@H]4[C@@]5(C)CC[C@H](O)C(C)(C)[C@@H]5CC[C@]43C)[C@H]12` [Ursolic acid]: the ΔTm at 40 µM in assay [5] (read-out: ΔTm (°C) ^1) is 16.3 ± 3.2 °C. The MIC in assay [2] amounted to 1 mM (≈ 457 µg/mL).

In the case of `CCN(CC)CCCC(C)Nc1c2ccc(Cl)cc2nc2ccc(OC)cc12` (centres unmarked) [quinacrine], the ΔTm at 40 µM in assay [5] (setting [7]) amounted to 2.1 ± 0.9 °C; in assay [4] (setting [8]) it was 15.2 ± 1.7 °C. In addition, in assay [2], the MIC is 0.2 mM (≈ 80 µg/mL).

Turning to “F. tularensis SCHU S4 MglA fused to the ω subunit of E. coli RNA polymerase (pBR-mglA-ω) (natural protein)”, in assay [6], the decrease of β-galactosidase activity (%) with arecoline hydrobromide is 7.8%, the decrease of β-galactosidase activity (%) with benzbromarone worked out at 5.8%, the decrease of β-galactosidase activity (%) with benzethonium chloride worked out at 18.9% and the decrease of β-galactosidase activity (%) with captopril was determined as 16.2%. Also, in assay [6], the decrease of β-galactosidase activity (%) with diethylcarbamazine citrate amounted to 19.3%, the decrease of β-galactosidase activity (%) with dipyrone came out at 10.3%, the decrease of β-galactosidase activity (%) with flumequine worked out at 12% and the decrease of β-galactosidase activity (%) with haloperidol was 18%. In assay [6], this molecule had a decrease of β-galactosidase activity (%) with meclofenamic acid of 13.2%, a decrease of β-galactosidase activity (%) with nabumetone of 17.1%, a decrease of β-galactosidase activity (%) with pamoic acid of 15.5% and a decrease of β-galactosidase activity (%) with proparacaine hydrochloride of 9.8%. In assay [6], the decrease of β-galactosidase activity (%) with quinacrine dihydrochloride was 61%, the decrease of β-galactosidase activity (%) with retinoic acid is 31%, the decrease of β-galactosidase activity (%) with theophylline monohydrate is 6.5% and the decrease of β-galactosidase activity (%) with tolfenamic acid came to 7.7%. This molecule displayed a decrease of β-galactosidase activity (%) with ursolic acid in assay [6] of 16.5%.
